Assay results taken from US4379156A, “Heterocyclic chemicals, their preparation and use” (Burroughs Wellcome Co., priority 1979, dated 1983).
“And” between values parts separate entries of the source, which are not always exact repeats. Identical values can stand only once. Like-named read-outs stand apart in the source and are kept apart here.

How the values were obtained:
[1] = Toxicity in adult male mice (LD50); settings: mouse, in vivo, observed up to 10 days
Procedure: Groups of adult male mice were given graded doses of the compound to be tested by stomach tube (P.O.) or subcutaneously (S.C.). The animals were kept under observation at frequent intervals up to 6 hours, then at 24 hours and daily for up to 10 days for overt changes in behaviour and for fatalities.

[2] = system: Schistosoma mansoni; assay: Schistosomicidal activity in infected mice (proportion of dead worms); type: in vivo; settings: 12.5 mg/kg, dead worms relative to total worms recovered, autopsy 7 to 10 days after treatment; for % kill P.O.: oral; for % kill S.C.: subcutaneous
Procedure: Male mice weighing between 18 and 20 g were each infected percutaneously with 80 to 100 cercariae of Schistosoma mansoni. Groups of 5 or 10 mice with a 7 to 9 week infection of schistosomes were dosed orally (P.O.) or subcutaneously (S.C.) with 12.5 mg/kg of the compounds to be tested, and the animals were autopsied from 7 to 10 days after treatment. The number, sex and proportional distribution of schistosomes within the mesenteric, portal and intrahepatic veins were determined, and the final assessment of dose response was made on the proportion of dead worms found in relation to the total worms recovered in the treated group.

[3] = Toxicity in adult male mice (LD50); settings: mouse, in vivo, iv, I.V.
[4] = po, by stomach tube, read-out: LD50 P.O.
[5] = sc, subcutaneous, read-out: LD50 S.C.

CC(=O)NC(=O)Cn1cc([N+](=O)[O-])sc1=NC(=O)c1cccc([N+](=O)[O-])c1 [Example 2, 2-[2-(3-Nitrobenzoylimino)-5-nitro-4-thiazolin-3-yl]diacetamide]
LD50 at 240 h [1, 4]: > 2000 mg/kg
LD50 at 240 h [1, 5]: > 2000 mg/kg
% kill P.O. [2]: 100%
% kill S.C. [2]: 100%

2-[2-(2-Chlorobenzoylimino)-5-nitro-4-thiazolin-3-yl]diacetamide [Example 3]
% kill P.O. [2]: 100% and 71%
% kill S.C. [2]: 99% and 98%

CC(=O)NC(=O)Cn1cc([N+](=O)[O-])sc1=NC(=O)c1ccccc1C [Example 1, 2-[2-(2-Methylbenzoylimino)-5-nitro-4-thiazolin-3-yl]diacetamide]
LD50 at 240 h [1, 4]: > 2000 mg/kg
LD50 at 240 h [1, 5]: > 2000 mg/kg
% kill P.O. [2]: 80%
% kill S.C. [2]: 100%

CC(=O)NC(=O)Cn1cc([N+](=O)[O-])sc1=NC(=O)c1ccccc1 [*(1), 2-[2-(benzoylimino)-5-nitro-4-thiazolin-3yl]diacetamide, reference compound]
LD50 at 240 h [1, 4]: 953 mg/kg
LD50 [3]: 192 mg/kg
% kill P.O. [2]: 58%
% kill S.C. [2]: 53%

NC(=O)Cn1cc([N+](=O)[O-])sc1=NC(=O)c1cccc([N+](=O)[O-])c1 [Example 6, 2-[(3-Nitrobenzoyl)imino]-5-nitro-4-thiazoline-3-acetamide]
LD50 at 240 h [1, 4]: > 1000 mg/kg
LD50 at 240 h [1, 5]: > 500 mg/kg

CC(=O)NC(=O)Cn1cc([N+](=O)[O-])sc1=NC(=O)c1ccccc1[N+](=O)[O-] [Example 4, 2-[2-(2-Nitrobenzoylimino)-5-nitro-4-thiazolin-3-yl]diacetamide]
% kill P.O. [2]: 74%
% kill S.C. [2]: 98%

NC(=O)Cn1cc([N+](=O)[O-])sc1=NC(=O)c1ccccc1 [*(2), 2-(benzoylimino)-5-nitro-4-thiazoline-3-acetamide, reference compound]
% kill P.O. [2]: 8.5%
% kill S.C. [2]: 0%

Cc1ccccc1C(=O)N=c1sc([N+](=O)[O-])cn1CC(N)=O [Example 5, 2-[(2-Methylbenzoyl)imino]-5-nitro-4-thiazoline-3-acetamide]
LD50 at 240 h [1, 4]: > 2000 mg/kg
LD50 at 240 h [1, 5]: > 1000 mg/kg
